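Compound exposure: 48 hours, 5 concentrations, 96-well plates. At the GI50, growth is halved.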 Activity calls are given as the source filed them. Rule as the data show it: active = GI50 up to about 1.1 µM and inactive = higher.
Legend:
Assay in all cases: inhibition of tumour cell growth, NCI panel, 48 h
[1] = tested on: A549
[2] = tested on: ACHN
[3] = tested on: BT-549
[4] = tested on: CAKI-1
[5] = tested on: CCRF-CEM
[6] = tested on: COLO 205
[7] = tested on: DU-145
[8] = tested on: EKVX
[9] = tested on: HCC 2998
[10] = tested on: HCT-116
[11] = tested on: HOP-62
[12] = tested on: HOP-92
[13] = tested on: HT-29
[14] = tested on: Hs-578T
[15] = tested on: IGROV-1
[16] = tested on: K562
[17] = tested on: KM12
[18] = tested on: LOX IMVI
[19] = tested on: M14
[20] = tested on: MCF7
[21] = tested on: MDA-MB-231
[22] = tested on: MDA-MB-435
[23] = tested on: MDA-N
[24] = tested on: MOLT-4
[25] = tested on: Malme-3M
[26] = tested on: NCI-H226
[27] = tested on: NCI-H23
[28] = tested on: NCI-H460
[29] = tested on: NCI/ADR-RES
[30] = tested on: OVCAR-3
[31] = tested on: OVCAR-4
[32] = tested on: OVCAR-5
[33] = tested on: OVCAR-8
[34] = tested on: PC-3
[35] = tested on: RPMI-8226
[36] = tested on: RXF 393
[37] = tested on: SF-268
[38] = tested on: SF-295
[39] = tested on: SF-539
[40] = tested on: SK-MEL-28
[41] = tested on: SK-MEL-2
[42] = tested on: SK-MEL-5
[43] = tested on: SN12C
[44] = tested on: SNB-19
[45] = tested on: SNB-75
[46] = tested on: SR
[47] = tested on: SW-620
[48] = tested on: T47D
[49] = tested on: TK-10
[50] = tested on: U-251
[51] = tested on: UACC-257
[52] = tested on: UACC-62
[53] = tested on: UO-31
[54] = tested on: 786-0
[55] = tested on: HCT-15
[56] = tested on: HL-60
[57] = tested on: SK-OV-3
[58] = tested on: NCI-H522

For `Cc1cc(C)c(S(=O)(=O)N(CCCCCN)OCCCN)c(C)c1`, the GI50 [1] was 19 µM (inactive), the GI50 [2] was 19.5 µM (inactive) and the GI50 [3] was 17.4 µM (inactive). The GI50 [4] was 17.4 µM (inactive), the GI50 [5] was 20.7 µM (inactive) and the GI50 [6] was 20.2 µM (inactive). The GI50 [7] was 16.7 µM (inactive), the GI50 [8] was 15.9 µM (inactive) and the GI50 [9] was 7.14 µM (inactive). For the same compound, the GI50 [10] was 17.9 µM (inactive), the GI50 [11] was 16.5 µM (inactive) and the GI50 [12] was 15.9 µM (inactive). The GI50 [13] was 14.1 µM (inactive), the GI50 [14] was 22 µM (inactive) and the GI50 [15] was 13.9 µM (inactive). For the same compound, the GI50 [16] was 17 µM (inactive), the GI50 [17] was 19 µM (inactive) and the GI50 [18] was 17.7 µM (inactive). For the same compound, the GI50 [19] was 18.3 µM (inactive), the GI50 [20] was 17.1 µM (inactive) and the GI50 [21] was 31.7 µM (inactive). For the same compound, the GI50 [22] was 18.2 µM (inactive), the GI50 [23] was 16.7 µM (inactive) and the GI50 [24] was 14.4 µM (inactive). For the same compound, the GI50 [25] was 23.4 µM (inactive), the GI50 [26] was 14.8 µM (inactive) and the GI50 [27] was 18.3 µM (inactive). The GI50 [28] was 16.8 µM (inactive), the GI50 [29] was 18 µM (inactive) and the GI50 [30] was 17.5 µM (inactive). For the same compound, the GI50 [31] was 21.5 µM (inactive), the GI50 [32] was 17.9 µM (inactive) and the GI50 [33] was 18.8 µM (inactive). For the same compound, the GI50 [34] was 14.7 µM (inactive), the GI50 [35] was 11.7 µM (inactive) and the GI50 [36] was 10.3 µM (inactive). For the same compound, the GI50 [37] was 20.3 µM (inactive), the GI50 [38] was 15.1 µM (inactive) and the GI50 [39] was 11.9 µM (inactive). For the same compound, the GI50 [40] was 16.9 µM (inactive), the GI50 [41] was 17.9 µM (inactive) and the GI50 [42] was 16.3 µM (inactive). The GI50 [43] was 18.1 µM (inactive), the GI50 [44] was 20.3 µM (inactive) and the GI50 [45] was 15.3 µM (inactive). For the same compound, the GI50 [46] was 12.7 µM (inactive), the GI50 [47] was 19 µM (inactive) and the GI50 [48] was 20.6 µM (inactive). For the same compound, the GI50 [49] was 17 µM (inactive), the GI50 [50] was 18.3 µM (inactive) and the GI50 [51] was 17.1 µM (inactive). The GI50 [52] was 17.7 µM (inactive) and the GI50 [53] was 14.1 µM (inactive).

In the case of `CC(C)CC1NC(=O)CCC(NC(=O)C(Cc2ccc(O)cc2)NC(=O)OCc2ccccc2)C(=O)NC(Cc2ccccc2)C(=O)NC(Cc2ccccc2)NC1=O` (stereo not drawn), the GI50 [54] is reported as > 100 µM (inactive), the GI50 [1] is reported as > 100 µM (inactive) and the GI50 [2] is reported as > 100 µM (inactive). The GI50 [3] was > 100 µM (inactive), the GI50 [4] was > 100 µM (inactive) and the GI50 [5] was > 100 µM (inactive). For the same compound, the GI50 [6] was > 100 µM (inactive), the GI50 [7] was > 100 µM (inactive) and the GI50 [8] was > 100 µM (inactive). The GI50 [9] was > 100 µM (inactive), the GI50 [10] was > 100 µM (inactive) and the GI50 [55] was greater than 100 µM. For the same compound, the GI50 [56] was > 100 µM (inactive), the GI50 [11] was > 100 µM (inactive) and the GI50 [12] was > 100 µM (inactive). The GI50 [13] was > 100 µM (inactive), the GI50 [14] was > 100 µM (inactive) and the GI50 [15] was > 100 µM (inactive). The GI50 [16] was > 100 µM (inactive), the GI50 [17] was > 100 µM (inactive) and the GI50 [18] was > 100 µM (inactive). The GI50 [19] was > 100 µM (inactive), the GI50 [20] was > 100 µM (inactive) and the GI50 [21] was > 100 µM (inactive). For the same compound, the GI50 [22] was > 100 µM (inactive), the GI50 [23] was > 100 µM (inactive) and the GI50 [24] was > 100 µM (inactive). The GI50 [25] was > 100 µM (inactive), the GI50 [26] was > 100 µM (inactive) and the GI50 [27] was > 100 µM (inactive). For the same compound, the GI50 [28] was > 100 µM (inactive), the GI50 [29] was > 100 µM (inactive) and the GI50 [30] was > 100 µM (inactive). The GI50 [31] was > 100 µM (inactive), the GI50 [32] was > 100 µM (inactive) and the GI50 [33] was > 100 µM (inactive). For the same compound, the GI50 [34] was > 100 µM (inactive), the GI50 [35] was > 100 µM (inactive) and the GI50 [36] was > 100 µM (inactive). The GI50 [37] was > 100 µM (inactive), the GI50 [38] was > 100 µM (inactive) and the GI50 [39] was > 100 µM (inactive). For the same compound, the GI50 [40] was > 100 µM (inactive), the GI50 [41] was > 100 µM (inactive) and the GI50 [42] was > 100 µM (inactive). The GI50 [57] was 0.578 µM (active), the GI50 [43] was > 100 µM (inactive) and the GI50 [44] was 56.6 µM (inactive). The GI50 [45] was > 100 µM (inactive), the GI50 [46] was > 100 µM (inactive) and the GI50 [47] was > 100 µM (inactive). The GI50 [48] was > 100 µM (inactive), the GI50 [49] was > 100 µM (inactive) and the GI50 [50] was > 100 µM (inactive). The GI50 [51] was > 100 µM (inactive), the GI50 [52] was > 100 µM (inactive) and the GI50 [53] was > 100 µM (inactive).

For `c1ccc2c(c1)ccn2CCc1c[nH]c2ccccc12`, the GI50 [54] was > 10 µM (inactive), the GI50 [1] was > 10 µM (inactive) and the GI50 [2] was > 10 µM (inactive). The GI50 [3] was > 10 µM (inactive), the GI50 [4] was > 10 µM (inactive) and the GI50 [5] was > 10 µM (inactive). For the same compound, the GI50 [6] was > 10 µM (inactive), the GI50 [7] was > 10 µM (inactive) and the GI50 [8] was > 10 µM (inactive). For the same compound, the GI50 [9] was > 10 µM (inactive), the GI50 [10] was > 10 µM (inactive) and the GI50 [55] was greater than 10 µM. The GI50 [56] was > 10 µM (inactive), the GI50 [11] was > 10 µM (inactive) and the GI50 [12] was > 10 µM (inactive). The GI50 [13] was > 10 µM (inactive), the GI50 [14] was > 10 µM (inactive) and the GI50 [15] was > 10 µM (inactive). For the same compound, the GI50 [16] was > 10 µM (inactive), the GI50 [17] was > 10 µM (inactive) and the GI50 [18] was > 10 µM (inactive). For the same compound, the GI50 [19] was > 10 µM (inactive), the GI50 [20] was > 10 µM (inactive) and the GI50 [21] was > 10 µM (inactive). The GI50 [22] was > 10 µM (inactive), the GI50 [23] was > 10 µM (inactive) and the GI50 [24] was > 10 µM (inactive). For the same compound, the GI50 [25] was > 10 µM (inactive), the GI50 [26] was 8.07 µM (inactive) and the GI50 [27] was > 10 µM (inactive). The GI50 [28] was > 10 µM (inactive), the GI50 [58] was > 10 µM (inactive) and the GI50 [29] was > 10 µM (inactive). For the same compound, the GI50 [30] was > 10 µM (inactive), the GI50 [31] was > 10 µM (inactive) and the GI50 [32] was > 10 µM (inactive). For the same compound, the GI50 [33] was > 10 µM (inactive), the GI50 [34] was > 10 µM (inactive) and the GI50 [35] was > 10 µM (inactive). For the same compound, the GI50 [36] was 9.31 µM (inactive), the GI50 [37] was > 10 µM (inactive) and the GI50 [38] was > 10 µM (inactive). For the same compound, the GI50 [39] was > 10 µM (inactive), the GI50 [40] was > 10 µM (inactive) and the GI50 [41] was > 10 µM (inactive). For the same compound, the GI50 [42] was > 10 µM (inactive), the GI50 [57] was > 10 µM (inactive) and the GI50 [43] was > 10 µM (inactive). For the same compound, the GI50 [44] was > 10 µM (inactive), the GI50 [45] was > 10 µM (inactive) and the GI50 [46] was > 10 µM (inactive). For the same compound, the GI50 [47] was > 10 µM (inactive), the GI50 [48] was > 10 µM (inactive) and the GI50 [49] was > 10 µM (inactive). For the same compound, the GI50 [50] was > 10 µM (inactive), the GI50 [51] was > 10 µM (inactive) and the GI50 [52] was > 10 µM (inactive). For the same compound, the GI50 [53] was 9.86 µM (inactive).
